# Measured values from US9359378B2, “Substituted oxazolo[3,4-a]pyrazines as pharmaceutcals” (BIOLAB SANUS FARMACÊUTICA LTDA., priority 2014, dated 2016).
# Tests used:
# Assay type in all cases: biochemical
# [1] = molecular target: T1, PDE4A1A (Homo sapiens, UniProt P27815); test: PDE4A1A enzyme inhibition (HTRF, cAMP substrate); conditions: human recombinant enzyme (Sf9); FIGS. 14 and 15; test concentration not given
# T1 construct: host or cells: Sf9
# From the text: (§1) The effects of the BL-230 and BL-236 compounds on the activity of the human enzymes PDE2A1, PDE3A, PDE4A1A, PDE4B1, PDE7A, PDE8A1, and PDE10A2 and PDE11A4 were quantified by measuring the production of adenosine 5′-monophosphate (5′AMP) from cyclic adenosine monophosphate (cAMP), with human recombinant enzyme expressed in Sf9 cells and the detection method was by using HTRF®.
# (§2) The test compound, the reference compound or water (control) were mixed with the enzyme (the enzymes and their amounts used are described in Table 1) in a buffer containing 44.4 mM Tris-HCl, 5.28 mM MgCl2, 2.64 mM DTT and 0.044% Tween® 20 (pH 7.8). Then, the reaction was initiated by the addition of 40 nM of cAMP substrate and the mixture was incubated for 30 minutes at room temperature. For basal control measurements, the enzyme was omitted from the reaction mixture. The fluorescence acceptor (Dye2 labeled cAMP) and fluorescence donor (anti-cAMP antibody labeled with europium cryptate) were added in the presence of 1 mM IBMX. After 60 minutes, the fluorescence corresponding to the amount of transfer residual cAMP was measured at λex=337 nm, λem=620 nm and λem=665 nm using a microplate reader (RubyStar, BMG). The enzyme activity was determined by the signal division measured at 665 nm, by the measured signal at 620 nm (right). The results were expressed as a inhibition percentage of the control enzyme activity. […]
# [2] = molecular target: T2, PDE3A (Homo sapiens, UniProt Q14432); test: PDE3A enzyme inhibition (HTRF, cAMP substrate); conditions: human recombinant enzyme (Sf9); FIGS. 14 and 15; test concentration not given
# T2 construct: host or cells: Sf9
# From the text: as §1, §2
# [3] = molecular target: T3, PDE5 (Homo sapiens, UniProt O76074); test: PDE5 enzyme inhibition (SPA, enzyme isolated from human platelets); conditions: FIGS. 14 and 15, test concentration not given
# T3 construct: using an enzyme isolated from Cerep human platelets; tissue Cerep; host or cells: human platelets
# Experimental: The effects of compounds BL-230 and BL-236 on human PDE5 enzyme activity was quantified by measuring the production of 5′GMP from cGMP using an enzyme isolated from Cerep human platelets and the utilized detection method was scintillation proximity assay (SPA).
# The test compound, the reference compound or water (control) were added to a buffer containing 40 mM Tris-HCl (pH 7.8), 3 mM MgCl2, 1.4 mM DTT, 0.21% BSA, 200 mM ammonium chloride (NH4Cl), 1 μM cGMP and 0.1 μCi of [^3H]cGMP. Then the reaction was started by adding the enzyme (final amount depending on the efficiency of the isolation) and the mixture was incubated for 60 minutes at 22° C. For basal control measurements, the enzyme was omitted from the reaction mixture. Following this, the SPA incubation beads were added. After 20 min at 22° C. under agitation, the amount of [^3H] 5′GMP was quantified with a scintillation counter (Topcount, Packard). The results were expressed as an inhibition percentage of the control enzyme activity. The standard inhibitory reference compound dipyridamole was used, which was tested in each experiment at several concentrations to obtain an inhibition curve from which its IC50 value was calculated. […]
# [4] = molecular target: T4, PDE2A1 (Homo sapiens, UniProt O00408); test: PDE2A1 enzyme inhibition (HTRF, cAMP substrate); conditions: human recombinant enzyme (Sf9); FIGS. 14 and 15; test concentration not given
# T4 construct: host or cells: Sf9
# From the text: as §1, §2
# [5] = molecular target: T5, PDE8A1 (Homo sapiens, UniProt O60658); test: PDE8A1 enzyme inhibition (HTRF, cAMP substrate); conditions: human recombinant enzyme (Sf9); FIGS. 14 and 15; test concentration not given
# T5 construct: host or cells: Sf9
# From the text: as §1, §2
# [6] = molecular target: T6, PDE10A2 (Homo sapiens, UniProt Q9Y233); test: PDE10A2 enzyme inhibition (HTRF, cAMP substrate); conditions: human recombinant enzyme (Sf9); FIG. 14; test concentration not given
# T6 construct: host or cells: Sf9
# From the text: as §1, §2
# [7] = molecular target: T7, PDE7A (Homo sapiens, UniProt Q13946); test: PDE7A enzyme inhibition (HTRF, cAMP substrate); conditions: human recombinant enzyme (Sf9); FIGS. 14 and 15; test concentration not given
# T7 construct: host or cells: Sf9
# From the text: as §1, §2
# T5 sequence (O60658 whole entry): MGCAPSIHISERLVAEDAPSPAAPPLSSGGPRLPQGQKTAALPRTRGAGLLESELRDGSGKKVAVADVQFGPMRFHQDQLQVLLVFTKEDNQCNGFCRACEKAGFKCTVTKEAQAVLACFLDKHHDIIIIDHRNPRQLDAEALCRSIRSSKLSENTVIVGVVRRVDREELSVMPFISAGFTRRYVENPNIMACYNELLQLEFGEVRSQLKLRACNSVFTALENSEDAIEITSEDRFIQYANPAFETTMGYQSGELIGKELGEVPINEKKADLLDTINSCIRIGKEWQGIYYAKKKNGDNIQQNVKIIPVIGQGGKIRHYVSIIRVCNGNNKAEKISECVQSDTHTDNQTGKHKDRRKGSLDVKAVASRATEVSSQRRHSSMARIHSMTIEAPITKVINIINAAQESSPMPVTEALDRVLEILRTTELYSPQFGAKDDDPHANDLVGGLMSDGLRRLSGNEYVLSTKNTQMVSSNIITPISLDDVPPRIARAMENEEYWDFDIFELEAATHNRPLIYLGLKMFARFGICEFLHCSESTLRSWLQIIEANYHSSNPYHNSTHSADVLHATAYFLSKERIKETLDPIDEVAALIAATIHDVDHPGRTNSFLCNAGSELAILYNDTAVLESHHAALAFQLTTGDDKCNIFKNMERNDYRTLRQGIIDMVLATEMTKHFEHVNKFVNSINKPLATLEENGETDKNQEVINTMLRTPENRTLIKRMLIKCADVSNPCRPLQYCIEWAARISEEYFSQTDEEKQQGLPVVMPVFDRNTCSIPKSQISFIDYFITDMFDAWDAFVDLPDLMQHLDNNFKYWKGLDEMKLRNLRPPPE
# T4 sequence (O00408 1-920 isoform O00408-2): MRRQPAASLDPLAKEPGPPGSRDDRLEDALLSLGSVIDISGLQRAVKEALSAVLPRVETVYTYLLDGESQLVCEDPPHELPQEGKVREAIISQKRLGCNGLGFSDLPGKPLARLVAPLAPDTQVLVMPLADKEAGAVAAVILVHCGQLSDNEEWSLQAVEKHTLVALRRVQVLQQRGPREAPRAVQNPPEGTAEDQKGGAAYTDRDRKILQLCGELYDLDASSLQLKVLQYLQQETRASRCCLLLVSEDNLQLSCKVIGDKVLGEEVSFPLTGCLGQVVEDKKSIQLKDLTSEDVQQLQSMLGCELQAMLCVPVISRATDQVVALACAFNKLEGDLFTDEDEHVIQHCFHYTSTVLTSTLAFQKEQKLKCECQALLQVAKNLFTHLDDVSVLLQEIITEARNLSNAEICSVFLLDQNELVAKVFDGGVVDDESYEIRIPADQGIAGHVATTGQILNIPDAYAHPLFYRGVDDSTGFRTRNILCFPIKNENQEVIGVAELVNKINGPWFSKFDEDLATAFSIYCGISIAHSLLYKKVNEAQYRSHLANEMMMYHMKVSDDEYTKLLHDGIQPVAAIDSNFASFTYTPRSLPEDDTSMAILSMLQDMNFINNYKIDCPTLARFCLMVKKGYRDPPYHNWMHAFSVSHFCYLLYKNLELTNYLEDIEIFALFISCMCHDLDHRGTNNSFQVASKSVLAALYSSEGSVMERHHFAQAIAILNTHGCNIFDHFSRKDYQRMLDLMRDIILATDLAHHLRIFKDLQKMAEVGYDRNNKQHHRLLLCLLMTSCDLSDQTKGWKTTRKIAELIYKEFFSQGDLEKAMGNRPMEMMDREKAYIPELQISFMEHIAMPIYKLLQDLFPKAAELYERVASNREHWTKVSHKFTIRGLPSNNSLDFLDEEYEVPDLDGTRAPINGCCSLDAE
# T1 sequence (P27815 1-647 isoform P27815-4): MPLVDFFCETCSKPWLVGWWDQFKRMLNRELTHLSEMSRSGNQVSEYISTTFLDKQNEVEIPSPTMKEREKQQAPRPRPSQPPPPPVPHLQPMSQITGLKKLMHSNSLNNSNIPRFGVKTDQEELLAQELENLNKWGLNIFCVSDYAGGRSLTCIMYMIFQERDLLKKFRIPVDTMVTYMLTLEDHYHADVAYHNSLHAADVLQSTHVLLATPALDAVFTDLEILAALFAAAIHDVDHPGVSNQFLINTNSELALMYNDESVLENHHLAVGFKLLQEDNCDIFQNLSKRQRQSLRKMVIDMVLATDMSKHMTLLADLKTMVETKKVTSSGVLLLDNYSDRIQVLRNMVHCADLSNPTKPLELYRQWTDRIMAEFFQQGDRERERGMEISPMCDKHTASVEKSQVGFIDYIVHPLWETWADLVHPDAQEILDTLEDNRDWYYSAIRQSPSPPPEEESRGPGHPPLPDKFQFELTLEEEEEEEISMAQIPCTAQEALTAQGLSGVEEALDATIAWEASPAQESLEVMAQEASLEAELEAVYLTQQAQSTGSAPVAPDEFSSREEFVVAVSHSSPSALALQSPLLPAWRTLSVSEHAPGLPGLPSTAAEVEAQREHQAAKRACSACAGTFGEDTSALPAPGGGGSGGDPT
# T2 sequence (Q14432 whole entry): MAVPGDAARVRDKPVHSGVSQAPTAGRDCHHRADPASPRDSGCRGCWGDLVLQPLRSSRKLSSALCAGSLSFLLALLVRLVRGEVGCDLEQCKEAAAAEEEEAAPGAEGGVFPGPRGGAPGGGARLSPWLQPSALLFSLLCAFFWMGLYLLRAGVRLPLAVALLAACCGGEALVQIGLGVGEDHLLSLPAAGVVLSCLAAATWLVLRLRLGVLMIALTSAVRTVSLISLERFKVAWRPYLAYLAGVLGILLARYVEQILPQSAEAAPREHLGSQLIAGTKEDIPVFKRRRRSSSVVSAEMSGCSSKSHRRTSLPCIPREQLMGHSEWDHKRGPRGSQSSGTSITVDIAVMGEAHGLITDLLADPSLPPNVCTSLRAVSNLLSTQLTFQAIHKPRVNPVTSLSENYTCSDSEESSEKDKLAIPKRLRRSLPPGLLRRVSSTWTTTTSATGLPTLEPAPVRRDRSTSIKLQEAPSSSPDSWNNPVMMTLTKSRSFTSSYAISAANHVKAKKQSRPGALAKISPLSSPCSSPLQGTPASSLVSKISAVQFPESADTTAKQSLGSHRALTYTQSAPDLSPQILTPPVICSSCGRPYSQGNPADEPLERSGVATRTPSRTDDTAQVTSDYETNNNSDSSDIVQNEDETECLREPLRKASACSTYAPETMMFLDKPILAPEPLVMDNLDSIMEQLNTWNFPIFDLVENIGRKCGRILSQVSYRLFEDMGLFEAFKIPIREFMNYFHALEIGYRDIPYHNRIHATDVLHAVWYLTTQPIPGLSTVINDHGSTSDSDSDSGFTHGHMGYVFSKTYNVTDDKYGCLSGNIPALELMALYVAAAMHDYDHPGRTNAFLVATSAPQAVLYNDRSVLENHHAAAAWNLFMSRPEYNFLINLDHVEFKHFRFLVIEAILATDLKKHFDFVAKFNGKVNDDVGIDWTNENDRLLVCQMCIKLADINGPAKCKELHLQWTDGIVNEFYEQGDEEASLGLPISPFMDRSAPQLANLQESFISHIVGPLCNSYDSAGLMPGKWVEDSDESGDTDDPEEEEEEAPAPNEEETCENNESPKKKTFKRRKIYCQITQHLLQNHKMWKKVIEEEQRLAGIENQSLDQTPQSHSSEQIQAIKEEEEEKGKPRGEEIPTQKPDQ
# T7 sequence (Q13946 whole entry): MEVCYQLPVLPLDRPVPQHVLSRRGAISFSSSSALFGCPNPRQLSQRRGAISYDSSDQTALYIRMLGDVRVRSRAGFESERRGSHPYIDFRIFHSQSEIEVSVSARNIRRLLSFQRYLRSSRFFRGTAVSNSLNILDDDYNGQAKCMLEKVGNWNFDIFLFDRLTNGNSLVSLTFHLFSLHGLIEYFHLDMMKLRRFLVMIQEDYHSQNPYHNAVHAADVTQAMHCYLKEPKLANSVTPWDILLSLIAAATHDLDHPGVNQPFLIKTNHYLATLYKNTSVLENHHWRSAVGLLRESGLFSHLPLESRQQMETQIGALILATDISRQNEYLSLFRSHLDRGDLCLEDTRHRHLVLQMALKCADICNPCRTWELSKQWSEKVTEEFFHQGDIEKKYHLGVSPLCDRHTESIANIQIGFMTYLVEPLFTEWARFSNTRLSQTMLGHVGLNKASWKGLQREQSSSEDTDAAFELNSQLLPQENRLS
# T6 sequence (Q9Y233 267-1055): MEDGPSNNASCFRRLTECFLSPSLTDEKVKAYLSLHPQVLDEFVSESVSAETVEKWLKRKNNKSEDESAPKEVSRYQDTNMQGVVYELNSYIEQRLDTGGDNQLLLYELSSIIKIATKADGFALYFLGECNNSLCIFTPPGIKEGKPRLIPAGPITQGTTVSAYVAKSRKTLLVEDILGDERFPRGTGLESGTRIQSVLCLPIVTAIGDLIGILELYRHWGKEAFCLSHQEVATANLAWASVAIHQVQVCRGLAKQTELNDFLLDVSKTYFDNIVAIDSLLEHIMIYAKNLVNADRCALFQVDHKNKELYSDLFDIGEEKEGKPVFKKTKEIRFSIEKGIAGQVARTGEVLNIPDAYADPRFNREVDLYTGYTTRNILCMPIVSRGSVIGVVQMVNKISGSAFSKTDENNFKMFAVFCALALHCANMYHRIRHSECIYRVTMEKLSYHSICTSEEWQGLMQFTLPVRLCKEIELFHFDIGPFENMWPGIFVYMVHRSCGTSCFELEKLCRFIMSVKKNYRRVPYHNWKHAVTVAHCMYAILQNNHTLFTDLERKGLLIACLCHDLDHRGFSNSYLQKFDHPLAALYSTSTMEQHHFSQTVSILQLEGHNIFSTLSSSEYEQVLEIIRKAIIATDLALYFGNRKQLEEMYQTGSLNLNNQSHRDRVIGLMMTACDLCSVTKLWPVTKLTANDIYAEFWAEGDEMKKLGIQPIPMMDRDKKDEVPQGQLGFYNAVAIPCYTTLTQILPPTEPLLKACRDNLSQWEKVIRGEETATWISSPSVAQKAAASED
compound,measurement,setting,value
"O=C1C2=C(c3c[nH]c4ccccc34)OC(c3ccc4c(c3)OCO4)N2C(=O)CN1CCO (stereo not shown) [BL-230, 3-(benzo[d][1,3]dioxol-5yl)-7-(2-hydroxyethyl)-1-(1H-indol-3-yl)-6,7-dihydro-3H-oxazolo[3,4-a]pyrazine-5,8-dione]",inhibition of PDE4A1A enzyme activity,[1],did not inhibit
same,inhibition of PDE3A enzyme activity,[2],did not inhibit
same,inhibition of PDE5 enzyme activity,[3],90%
same,inhibition of PDE2A1 enzyme activity,[4],did not inhibit
same,inhibition of PDE8A1 enzyme activity,[5],did not inhibit
same,inhibition of PDE10A2 enzyme activity,[6],35%
same,inhibition of PDE7A enzyme activity,[7],did not inhibit
"C[C@@H](CO)N1CC(=O)N2C(=C(c3c[nH]c4ccccc34)OC2c2ccc3c(c2)OCO3)C1=O (stereo partly drawn) [BL-236, 3-(benzo[d][1,3]dioxol-5yl)-7-((S)1-hydroxypropan-2yl)-1-(1H-indol-3-yl)-6,7-dihydro-3H-oxazolo[3,4-a]pyrazine-5,8-dione]",inhibition of PDE4A1A enzyme activity,[1],did not inhibit
same,inhibition of PDE3A enzyme activity,[2],did not inhibit
same,inhibition of PDE5 enzyme activity,[3],86%
same,inhibition of PDE2A1 enzyme activity,[4],did not inhibit
same,inhibition of PDE8A1 enzyme activity,[5],did not inhibit
same,inhibition of PDE7A enzyme activity,[7],did not inhibit
